From ChEMBL document CHEMBL2203277, “Synthesis and antibacterial activity of novel modified 5-O-desosamine ketolides” (2012) come the findings set out here.

In brackets after ≈: the same amount, converted by molar mass.

Common to all, as to type: functional
Test [1] concerns Streptococcus pyogenes. The test can be described thus: Antibacterial activity against erythromycin-resistant Streptococcus pyogenes 09Q149 by broth microdilution method. Background: Dilution methods test growth across graded concentrations, often in twofold steps.
In test [2] the test system is Streptococcus pyogenes. The test can be described thus: Antibacterial activity against erythromycin-sensitive Streptococcus pyogenes 09U070 by broth microdilution method.
The subject of test [3] is Streptococcus pneumoniae. The test can be described thus: Antibacterial activity against erythromycin-resistant Streptococcus pneumoniae 09E427 by broth microdilution method.
The subject of test [4] is Streptococcus pneumoniae. The test can be described thus: Antibacterial activity against erythromycin-resistant Streptococcus pneumoniae 09D016 by broth microdilution method.
Test [5] relates to Streptococcus pneumoniae. The test can be described thus: Antibacterial activity against erythromycin-sensitive Streptococcus pneumoniae 09H071 by broth microdilution method.
The subject of test [6] is Streptococcus pneumoniae. The test can be described thus: Antibacterial activity against erythromycin-sensitive Streptococcus pneumoniae 09H065 by broth microdilution method.
Test [7] has as its system Streptococcus pneumoniae. The test can be described thus: Antibacterial activity against erythromycin-sensitive Streptococcus pneumoniae ATCC 49619 by broth microdilution method.
Test [8] has as its system Staphylococcus epidermidis. The test can be described thus: Antibacterial activity against methicillin-resistant Staphylococcus epidermidis 09M124 by broth microdilution method.
Test [9] concerns Staphylococcus epidermidis. The test can be described thus: Antibacterial activity against methicillin-resistant Staphylococcus epidermidis 09R476 by broth microdilution method.
For test [10], the system named is Staphylococcus epidermidis. The test can be described thus: Antibacterial activity against methicillin-sensitive Staphylococcus epidermidis 09G291 by broth microdilution method.
The subject of test [11] is Staphylococcus epidermidis. Description: Antibacterial activity against methicillin-sensitive Staphylococcus epidermidis 09A011 by broth microdilution method.
The test system of test [12] is Staphylococcus aureus. The test can be described thus: Antibacterial activity against methicillin-resistant Staphylococcus aureus 09N120 by broth microdilution method.
Test [13] deals with Staphylococcus aureus. Description: Antibacterial activity against methicillin-resistant Staphylococcus aureus 09L075 by broth microdilution method.
The subject of test [14] is Staphylococcus aureus. The test can be described thus: Antibacterial activity against methicillin-sensitive Staphylococcus aureus 09U035 by broth microdilution method.
In test [15] the test system is Staphylococcus aureus. The test can be described thus: Antibacterial activity against methicillin-sensitive Staphylococcus aureus 09O077 by broth microdilution method.
The test system of test [16] is Staphylococcus aureus. Description: Antibacterial activity against methicillin-sensitive Staphylococcus aureus ATCC 29213 by broth microdilution method.

For the molecule `CC[C@H]1OC(=O)[C@H](C)[C@@H](O[C@H]2C[C@@](C)(OC)[C@@H](O)[C@H](C)O2)[C@H](C)[C@@H](O[C@@H]2O[C@H](C)C[C@H](N(C)C)[C@H]2O)[C@](C)(OC)C[C@@H](C)C(=O)[C@H](C)[C@@H](O)[C@]1(C)O` [CLARITHROMYCIN], the MIC is above 32 µg/mL against Streptococcus pyogenes [1]; 0.031 µg/mL (≈ 0.0414 µM) with Streptococcus pyogenes [2]; above 32 µg/mL against Streptococcus pneumoniae [3]; above 32 µg/mL against Streptococcus pneumoniae [4]; 0.062 µg/mL (≈ 0.0829 µM) against Streptococcus pneumoniae [5]; 0.062 µg/mL (≈ 0.0829 µM) with Streptococcus pneumoniae [6]. For the same molecule, the MIC against Streptococcus pneumoniae [7] was 0.125 µg/mL (≈ 0.167 µM); in test [8] it was 32 µg/mL (≈ 42.8 µM); in test [9], 0.25 µg/mL (≈ 0.334 µM); in test [10] it was above 32 µg/mL; in [11] it was 0.125 µg/mL (≈ 0.167 µM); against Staphylococcus aureus [12], above 32 µg/mL. Besides, the MIC is 2 µg/mL (≈ 2.67 µM) in the test on Staphylococcus aureus [13], above 32 µg/mL against Staphylococcus aureus [14], above 32 µg/mL against Staphylococcus aureus [15] and 0.25 µg/mL (≈ 0.334 µM) in the test on Staphylococcus aureus [16].

In the case of `C=CCO[C@H]1[C@H](N(C)C)[C@@H](O)[C@H](O[C@@H]2[C@@H](C)C(=O)[C@@H](C)C(=O)O[C@H](CC)[C@@]3(C)OC(=O)O[C@H]3[C@@H](C)C(=O)[C@H](C)C[C@@]2(C)OC)O[C@@H]1C`, the MIC with Streptococcus pyogenes [1] is above 8 µg/mL; in the test with Streptococcus pyogenes [2] it was above 8 µg/mL; in the test on Streptococcus pneumoniae [3] it was above 8 µg/mL; in the test with Streptococcus pneumoniae [4] it was above 8 µg/mL; against Streptococcus pneumoniae [5], 1 µg/mL (≈ 1.49 µM); in the test with Streptococcus pneumoniae [6], 0.5 µg/mL (≈ 0.746 µM). The MIC in the test with Streptococcus pneumoniae [7] is 0.5 µg/mL (≈ 0.746 µM); in test [8] it was 4 µg/mL (≈ 5.97 µM); in [9], 4 µg/mL (≈ 5.97 µM); in test [10], above 8 µg/mL; in test [11] it was 2 µg/mL (≈ 2.99 µM); against Staphylococcus aureus [12] it was above 8 µg/mL. The MIC is 8 µg/mL (≈ 11.9 µM) against Staphylococcus aureus [13], above 8 µg/mL in the test on Staphylococcus aureus [14], above 8 µg/mL in the test on Staphylococcus aureus [15] and 4 µg/mL (≈ 5.97 µM) against Staphylococcus aureus [16].

Regarding `CC[C@H]1OC(=O)[C@H](C)C(=O)[C@H](C)[C@@H](O[C@@H]2O[C@H](C)[C@@H](O)[C@H](N(C)C)[C@H]2O)[C@](C)(OC)C[C@@H](C)C(=O)[C@H](C)[C@@H]2OC(=O)O[C@]12C`, the MIC against Streptococcus pyogenes [1] was above 32 µg/mL; against Streptococcus pyogenes [2], at most 0.031 µg/mL; against Streptococcus pneumoniae [3] it was above 32 µg/mL; against Streptococcus pneumoniae [4] it was above 32 µg/mL; against Streptococcus pneumoniae [5] it was at most 0.031 µg/mL; with Streptococcus pneumoniae [6] it was 0.062 µg/mL (≈ 0.0985 µM). Also, the MIC in the test with Streptococcus pneumoniae [7] is 0.062 µg/mL (≈ 0.0985 µM); in test [8], 0.25 µg/mL (≈ 0.397 µM); in test [9] it was 0.25 µg/mL (≈ 0.397 µM); in test [10], above 32 µg/mL; in test [11], 0.125 µg/mL (≈ 0.198 µM); against Staphylococcus aureus [12], above 32 µg/mL. Moreover, the minimum inhibitory concentration (MIC) with Staphylococcus aureus [13] is 0.125 µg/mL (≈ 0.198 µM); with Staphylococcus aureus [14], above 32 µg/mL; in the test on Staphylococcus aureus [15], above 32 µg/mL; with Staphylococcus aureus [16], 0.125 µg/mL (≈ 0.198 µM).

For the molecule `CC[C@H]1OC(=O)[C@H](C)[C@@H](O[C@H]2C[C@@](C)(OC)[C@@H](O)[C@H](C)O2)[C@H](C)[C@@H](O[C@@H]2O[C@H](C)C[C@H](N(C)C)[C@H]2O)[C@](C)(O)C[C@@H](C)C(=O)[C@H](C)[C@@H](O)[C@]1(C)O` [ERYTHROMYCIN], the minimum inhibitory concentration (MIC) with Streptococcus pyogenes [1] is above 256 µg/mL; with Streptococcus pyogenes [2], 0.031 µg/mL (≈ 0.0422 µM); with Streptococcus pneumoniae [3] it was above 256 µg/mL; in the test with Streptococcus pneumoniae [4], above 256 µg/mL; against Streptococcus pneumoniae [5], 0.062 µg/mL (≈ 0.0845 µM); against Streptococcus pneumoniae [6], 0.062 µg/mL (≈ 0.0845 µM). For the same molecule, the MIC with Streptococcus pneumoniae [7] is 0.062 µg/mL (≈ 0.0845 µM); in [8] it was 128 µg/mL (≈ 174 µM); in test [9] it was 0.125 µg/mL (≈ 0.17 µM); in [10] it was above 256 µg/mL; in test [11] it was 0.062 µg/mL (≈ 0.0845 µM); against Staphylococcus aureus [12], above 256 µg/mL. Moreover, the MIC against Staphylococcus aureus [13] is 0.5 µg/mL (≈ 0.681 µM); with Staphylococcus aureus [14], above 256 µg/mL; with Staphylococcus aureus [15] it was above 256 µg/mL; against Staphylococcus aureus [16] it was 0.25 µg/mL (≈ 0.341 µM).

In the case of `CC[C@H]1OC(=O)[C@H](C)C(=O)[C@H](C)[C@@H](O[C@@H]2O[C@H](C)C[C@H](N(C)C)[C@H]2O)[C@](C)(OC)C[C@@H](C)C(=O)[C@H](C)[C@H]2N(CCCCn3cnc(-c4cccnc4)c3)C(=O)O[C@]12C` [TELITHROMYCIN], the MIC came to 2 µg/mL (≈ 2.46 µM) in the test on Streptococcus pyogenes [1]; 0.016 µg/mL (≈ 0.0197 µM) against Streptococcus pyogenes [2]; 0.25 µg/mL (≈ 0.308 µM) with Streptococcus pneumoniae [3]; 0.125 µg/mL (≈ 0.154 µM) against Streptococcus pneumoniae [4]; 0.031 µg/mL (≈ 0.0382 µM) against Streptococcus pneumoniae [5]; 0.031 µg/mL (≈ 0.0382 µM) with Streptococcus pneumoniae [6]. Further, the MIC against Streptococcus pneumoniae [7] is 0.031 µg/mL (≈ 0.0382 µM); in test [8], 0.25 µg/mL (≈ 0.308 µM); in [9], 0.125 µg/mL (≈ 0.154 µM); in test [10], above 64 µg/mL; in [11] it was 0.125 µg/mL (≈ 0.154 µM); against Staphylococcus aureus [12], above 64 µg/mL. Besides, the MIC was 0.125 µg/mL (≈ 0.154 µM) in the test with Staphylococcus aureus [13], above 64 µg/mL with Staphylococcus aureus [14], above 64 µg/mL with Staphylococcus aureus [15] and 0.125 µg/mL (≈ 0.154 µM) in the test on Staphylococcus aureus [16].

As for `CC[C@H]1OC(=O)[C@H](C)C(=O)[C@H](C)[C@@H](O[C@@H]2O[C@H](C)[C@@H](OCc3ccccc3)[C@H](N(C)C)[C@H]2O)[C@](C)(OC)C[C@@H](C)C(=O)[C@H](C)[C@@H]2OC(=O)O[C@]12C`, the MIC against Streptococcus pyogenes [1] is above 32 µg/mL; against Streptococcus pyogenes [2] it was above 32 µg/mL; in the test with Streptococcus pneumoniae [3] it was above 32 µg/mL; with Streptococcus pneumoniae [4] it was above 32 µg/mL; in the test with Streptococcus pneumoniae [5], 4 µg/mL (≈ 5.56 µM); against Streptococcus pneumoniae [6], 4 µg/mL (≈ 5.56 µM). Besides, the minimal inhibitory concentration (MIC) in the test on Streptococcus pneumoniae [7] was 4 µg/mL (≈ 5.56 µM); in test [8], 32 µg/mL (≈ 44.5 µM); in test [9] it was 32 µg/mL (≈ 44.5 µM); in [10], above 32 µg/mL; in test [11] it was 16 µg/mL (≈ 22.2 µM); in the test on Staphylococcus aureus [12], above 32 µg/mL. In addition, the minimum inhibitory concentration (MIC) in the test with Staphylococcus aureus [13] is above 32 µg/mL; with Staphylococcus aureus [14], above 32 µg/mL; against Staphylococcus aureus [15], above 32 µg/mL; in the test on Staphylococcus aureus [16], 32 µg/mL (≈ 44.5 µM).

As a reminder, the MIC is the lowest concentration found to suppress growth. Read a high MIC as a need for much substance.
